Source: publication PMC9363195, “Preclinical Pharmacokinetics, Biodistribution, and Acute Toxicity Evaluation of Caerin 1.9 Peptide in Sprague Dawley Rats” (Evidence-based Complementary and Alternative Medicine : eCAM, 2022)
Peptide text beside a SMILES is read from it.

System: SD rats
Assay: Hematology and coagulation analysis in acute toxicity study
Assay type: in vivo, Sprague Dawley rats
Conditions: female SD rats, day 15, mean ± SD
Description: Forty SD rats (20 males and 20 females) were randomly divided into 4 groups (Figure 1). All rats were given F3 once on the day of the experiment.
Twelve SD rats (6 males, 6 females) were given a daily subcutaneous injection of F3 at a dose of 10.0 mg/kg for consecutive 14 days. The first day of administration was recorded as day 1.
For 14 days, the body weight was measured before F3 administration on the first day of the experiment and once a week thereafter, with additional measurements on the day before and on the day of the planned autopsy. Food intake was recorded once a week. The rats were anesthetized by inhalation of 70% CO2/30% O2 before dissection, and blood samples were taken for hematology and biochemical analysis. The collected tissue was weighed and preserved for pathological examination.
Blood smears were used to investigate the morphology of basophils (ABBASO), eosinophils (ABEOS), neutrophils (ABNEUT), monocytes (ABMONO), and lymphocytes (ABLYMP) in the peripheral blood. When white blood cell classification and reticulocyte count cannot be calculated directly by ADVIA 2120i, they were manually counted and calculated following the procedure published previously. The number of platelets was determined manually when they could not be counted mechanically because of coagulation. Wright-Giemsa staining was used to prepare blood smears for cell morphology.
Liver and renal functions were measured with special attention to alanine aminotransferase (ALT), aspartate aminotransferase (AST), alkaline phosphatase (ALP), serum creatinine, total bilirubin, and urea levels. In addition, the levels of glucose, calcium, total protein, and albumin in serum samples were measured. The blood biochemical test, hematology test, and coagulation function test were detected by Hitachi 7180 automatic biochemical analyzer, Siemens ADVIA 2120i hematology analyzer, and Stargo Emo Express Hemagglutination analyzer, respectively.

[1] = s.c. 10.0 mg/kg daily x14 d, n=6

In the case of CC[C@H](C)[C@H](NC(=O)[C@H](CO)NC(=O)CNC(=O)[C@H](CC(C)C)NC(=O)[C@@H](NC(=O)CNC(=O)[C@H](Cc1ccccc1)NC(=O)[C@H](CC(C)C)NC(=O)CN)C(C)C)C(=O)N[C@@H](C)C(=O)N[C@@H](CCCCN)C(=O)N[C@@H](Cc1c[nH]cn1)C(=O)N[C@H](C(=O)N[C@@H](CC(C)C)C(=O)N1CCC[C@H]1C(=O)N[C@@H](Cc1c[nH]cn1)C(=O)N[C@H](C(=O)N[C@H](C(=O)N1CCC[C@H]1C(=O)N[C@H](C(=O)N[C@H](C(=O)N[C@@H](C)C(=O)N[C@@H](CCC(=O)O)C(=O)N[C@@H](CCCCN)C(=O)N[C@@H](CC(C)C)C(N)=O)[C@@H](C)CC)C(C)C)C(C)C)C(C)C)C(C)C [F3, Caerin 1.9] (H-GLFGVLGSIAKHVLPHVVPVIAEKL-NH2), the “ABBASO (basophils)” value [1] is reported as 0.01 ± 0 10^9/L, the “ABEOS (eosinophils)” value [1] is reported as 0.16 ± 0.07 10^9/L and the “ABLYMP (lymphocytes)” value [1] is reported as 7.64 ± 1.61 10^9/L. For the same compound, the “ABMONO (monocytes)” value [1] was 0.23 ± 0.08 10^9/L, the “ABNEUT (neutrophils)” value [1] was 2.53 ± 0.45 10^9/L and the ABRETIC [1] was 273.87 ± 31.75 10^9/L. For the same compound, the APTT [1] was 14.9 ± 0.28 s, the HCT [1] was 38.2 ± 1.34% and the HGB [1] was 11.62 ± 0.50 g/dL. It also gave an MCH [1] of 19.25 ± 0.69 pg, an MCHC [1] of 30.4 ± 0.46 g/dL and an MCV [1] of 63.38 ± 2.38 fL. The MPV [1] was 8.58 ± 0.42 fL, the PLT [1] was 1357.67 ± 169.65 10^9/L and the PT [1] was 20.45 ± 1.16 s. The RBC [1] was 6.04 ± 0.37 10^12/L, the WBC [1] was 10.67 ± 1.900 10^9/L and the “ABBASO (basophils)” value (single s.c. 1.0 mg/kg, n=5) was 0.006 ± 0.005 10^9/L. For the same compound, the “ABEOS (eosinophils)” value (single s.c. 1.0 mg/kg, n=5) was 0.072 ± 0.034 10^9/L, the “ABLYMP (lymphocytes)” value (single s.c. 1.0 mg/kg, n=5) was 5.956 ± 2.336 10^9/L and the “ABMONO (monocytes)” value (single s.c. 1.0 mg/kg, n=5) was 0.228 ± 0.234 10^9/L. The “ABNEUT (neutrophils)” value (single s.c. 1.0 mg/kg, n=5) was 1.71 ± 1.516 10^9/L, the ABRETIC (single s.c. 1.0 mg/kg, n=5) was 226.5 ± 33.41 10^9/L and the APTT (single s.c. 1.0 mg/kg, n=5) was 16.94 ± 1.15 s. It also gave an HCT (single s.c. 1.0 mg/kg, n=5) of 45.34 ± 3.13%, an HGB (single s.c. 1.0 mg/kg, n=5) of 14.44 ± 1.06 g/dL and an MCH (single s.c. 1.0 mg/kg, n=5) of 19.06 ± 0.27 pg. It also gave an MCHC (single s.c. 1.0 mg/kg, n=5) of 31.82 ± 0.47 g/dL, an MCV (single s.c. 1.0 mg/kg, n=5) of 59.86 ± 0.56 fL and an MPV (single s.c. 1.0 mg/kg, n=5) of 9.02 ± 0.30 fL. For the same compound, the PLT (single s.c. 1.0 mg/kg, n=5) was 1081.6 ± 83.2 10^9/L, the PT (single s.c. 1.0 mg/kg, n=5) was 20.06 ± 0.75 s and the RBC (single s.c. 1.0 mg/kg, n=5) was 7.584 ± 0.568 10^12/L. The WBC (single s.c. 1.0 mg/kg, n=5) was 8.022 ± 3.840 10^9/L, the “ABBASO (basophils)” value (single s.c. 10.0 mg/kg, n=5) was 0.01 ± 0.007 10^9/L and the “ABEOS (eosinophils)” value (single s.c. 10.0 mg/kg, n=5) was 0.072 ± 0.032 10^9/L. For the same compound, the “ABLYMP (lymphocytes)” value (single s.c. 10.0 mg/kg, n=5) was 6.526 ± 1.92 10^9/L, the “ABMONO (monocytes)” value (single s.c. 10.0 mg/kg, n=5) was 0.136 ± 0.034 10^9/L and the “ABNEUT (neutrophils)” value (single s.c. 10.0 mg/kg, n=5) was 1.128 ± 0.308 10^9/L. For the same compound, the ABRETIC (single s.c. 10.0 mg/kg, n=5) was 192.02 ± 21.07 10^9/L, the APTT (single s.c. 10.0 mg/kg, n=5) was 18.24 ± 1.36 s and the HCT (single s.c. 10.0 mg/kg, n=5) was 46.98 ± 1.22%. The HGB (single s.c. 10.0 mg/kg, n=5) was 14.9 ± 0.29 g/dL, the MCH (single s.c. 10.0 mg/kg, n=5) was 18.78 ± 0.75 pg and the MCHC (single s.c. 10.0 mg/kg, n=5) was 31.76 ± 0.46 g/dL. The MCV (single s.c. 10.0 mg/kg, n=5) was 59.1 ± 1.71 fL, the MPV (single s.c. 10.0 mg/kg, n=5) was 9.28 ± 0.20 fL and the PLT (single s.c. 10.0 mg/kg, n=5) was 1004.4 ± 93.7 10^9/L. The PT (single s.c. 10.0 mg/kg, n=5) was 19.44 ± 0.70 s, the RBC (single s.c. 10.0 mg/kg, n=5) was 7.954 ± 0.424 10^12/L and the WBC (single s.c. 10.0 mg/kg, n=5) was 7.922 ± 1.865 10^9/L. The “ABBASO (basophils)” value (single s.c. 100.0 mg/kg, n=5) was 0.008 ± 0.004 10^9/L, the “ABEOS (eosinophils)” value (single s.c. 100.0 mg/kg, n=5) was 0.06 ± 0.031 10^9/L and the “ABLYMP (lymphocytes)” value (single s.c. 100.0 mg/kg, n=5) was 5.886 ± 1.807 10^9/L. For the same compound, the “ABMONO (monocytes)” value (single s.c. 100.0 mg/kg, n=5) was 0.142 ± 0.094 10^9/L, the “ABNEUT (neutrophils)” value (single s.c. 100.0 mg/kg, n=5) was 1.148 ± 0.434 10^9/L and the ABRETIC (single s.c. 100.0 mg/kg, n=5) was 215.84 ± 21.41 10^9/L. It also gave an APTT (single s.c. 100.0 mg/kg, n=5) of 17.02 ± 1.47 s, an HCT (single s.c. 100.0 mg/kg, n=5) of 47.16 ± 1.49% and an HGB (single s.c. 100.0 mg/kg, n=5) of 14.96 ± 0.47 g/dL. It also gave an MCH (single s.c. 100.0 mg/kg, n=5) of 18.64 ± 1 pg, an MCV (single s.c. 100.0 mg/kg, n=5) of 58.8 ± 2.76 fL and an MPV (single s.c. 100.0 mg/kg, n=5) of 9 ± 0.19 fL. The PLT (single s.c. 100.0 mg/kg, n=5) was 987 ± 86.1 10^9/L, the PT (single s.c. 100.0 mg/kg, n=5) was 19.72 ± 0.50 s and the RBC (single s.c. 100.0 mg/kg, n=5) was 8.042 ± 0.561 10^12/L. The WBC (single s.c. 100.0 mg/kg, n=5) was 7.28 ± 2.163 10^9/L.
